Numbers after ± are expanded uncertainties.
Test: cn = amount concentration of the nth substance listed, in mol/dm3
Details: 101 kPa, Liquid, Direct current cell with electrodes

CCCCCn1cc[n+](C)c1.[Cl-] [1-methyl-3-pentylimidazolium chloride] + O
Details | molar conductivity [S·m2/mol]
298.15 K, c1 = 0.000693 | 0.00871 ± 0.00017
298.15 K, c1 = 0.001453 | 0.00866 ± 0.00017
298.15 K, c1 = 0.002097 | 0.00863 ± 0.00017
298.15 K, c1 = 0.002732 | 0.00862 ± 0.00017
298.15 K, c1 = 0.004637 | 0.0086 ± 0.00017
298.15 K, c1 = 0.006272 | 0.00858 ± 0.00017
298.15 K, c1 = 0.007754 | 0.00852 ± 0.00017
298.15 K, c1 = 0.01023 | 0.00841 ± 0.00017
298.15 K, c1 = 0.01283 | 0.00832 ± 0.00017
298.15 K, c1 = 0.01775 | 0.00817 ± 0.00016
298.15 K, c1 = 0.02186 | 0.00804 ± 0.00016
298.15 K, c1 = 0.02704 | 0.00793 ± 0.00016
298.15 K, c1 = 0.03205 | 0.00783 ± 0.00016
298.15 K, c1 = 0.0368 | 0.0078 ± 0.00016
298.15 K, c1 = 0.04132 | 0.00772 ± 0.00015
298.15 K, c1 = 0.04635 | 0.00763 ± 0.00015
298.15 K, c1 = 0.05182 | 0.00752 ± 0.00015
308.15 K, c1 = 0.000752 | 0.00993 ± 0.0002
308.15 K, c1 = 0.001643 | 0.00975 ± 0.00019
308.15 K, c1 = 0.002686 | 0.00964 ± 0.00019
308.15 K, c1 = 0.00347 | 0.00956 ± 0.00019
308.15 K, c1 = 0.004191 | 0.00959 ± 0.00019
308.15 K, c1 = 0.005081 | 0.00953 ± 0.00019
308.15 K, c1 = 0.006215 | 0.00945 ± 0.00019
308.15 K, c1 = 0.007646 | 0.00937 ± 0.00019
308.15 K, c1 = 0.009172 | 0.00927 ± 0.00018
308.15 K, c1 = 0.01102 | 0.00917 ± 0.00018
308.15 K, c1 = 0.01269 | 0.00912 ± 0.00018
308.15 K, c1 = 0.01447 | 0.00906 ± 0.00018
308.15 K, c1 = 0.01625 | 0.00902 ± 0.00018
308.15 K, c1 = 0.01799 | 0.00895 ± 0.00018
308.15 K, c1 = 0.01986 | 0.00889 ± 0.00018
308.15 K, c1 = 0.02253 | 0.00881 ± 0.00018
308.15 K, c1 = 0.02549 | 0.00873 ± 0.00017
308.15 K, c1 = 0.02884 | 0.00863 ± 0.00017
308.15 K, c1 = 0.03245 | 0.00856 ± 0.00017
308.15 K, c1 = 0.0363 | 0.00846 ± 0.00017
308.15 K, c1 = 0.04073 | 0.00837 ± 0.00017
308.15 K, c1 = 0.04603 | 0.0082 ± 0.00016
308.15 K, c1 = 0.04936 | 0.00814 ± 0.00016
318.15 K, c1 = 0.000273 | 0.0115 ± 0.00023
318.15 K, c1 = 0.000592 | 0.0114 ± 0.00023
318.15 K, c1 = 0.001207 | 0.0112 ± 0.00022
318.15 K, c1 = 0.002002 | 0.0111 ± 0.00022
318.15 K, c1 = 0.002757 | 0.011 ± 0.00022
318.15 K, c1 = 0.003483 | 0.0108 ± 0.00022
318.15 K, c1 = 0.004458 | 0.0107 ± 0.00021
318.15 K, c1 = 0.005601 | 0.0106 ± 0.00021
318.15 K, c1 = 0.007348 | 0.0105 ± 0.00021
318.15 K, c1 = 0.008904 | 0.0104 ± 0.00021
318.15 K, c1 = 0.01052 | 0.0103 ± 0.00021
318.15 K, c1 = 0.0124 | 0.0102 ± 0.0002
318.15 K, c1 = 0.01478 | 0.0101 ± 0.0002
318.15 K, c1 = 0.01661 | 0.01 ± 0.0002
318.15 K, c1 = 0.0196 | 0.00989 ± 0.0002
318.15 K, c1 = 0.02241 | 0.00978 ± 0.0002
318.15 K, c1 = 0.02545 | 0.00966 ± 0.00019
318.15 K, c1 = 0.02897 | 0.00953 ± 0.00019
318.15 K, c1 = 0.03318 | 0.00939 ± 0.00019
318.15 K, c1 = 0.03779 | 0.00924 ± 0.00018
328.15 K, c1 = 0.000588 | 0.0119 ± 0.00024
328.15 K, c1 = 0.001076 | 0.0118 ± 0.00023
328.15 K, c1 = 0.001612 | 0.0117 ± 0.00023
328.15 K, c1 = 0.002109 | 0.0116 ± 0.00023
328.15 K, c1 = 0.002949 | 0.0116 ± 0.00023
328.15 K, c1 = 0.003721 | 0.0116 ± 0.00023
328.15 K, c1 = 0.004608 | 0.0115 ± 0.00023
328.15 K, c1 = 0.005897 | 0.0113 ± 0.00023
328.15 K, c1 = 0.007087 | 0.0111 ± 0.00022
328.15 K, c1 = 0.008632 | 0.011 ± 0.00022
328.15 K, c1 = 0.01034 | 0.0108 ± 0.00022
328.15 K, c1 = 0.01229 | 0.0106 ± 0.00021
328.15 K, c1 = 0.01539 | 0.0105 ± 0.00021
328.15 K, c1 = 0.01788 | 0.0104 ± 0.00021
328.15 K, c1 = 0.02011 | 0.0103 ± 0.00021
328.15 K, c1 = 0.02273 | 0.0101 ± 0.0002
